Assay: Endo-glucosamine-6-sulfatase assay against intact heparin (heparinase digestion, disaccharide HPLC)
Format: biochemical, porcine
Conditions: for Endo-glucosamine-6-sulfatase activity: 10 μg heparin, pH 7.5, 37° C., 8 hr, means±S.D., three reactions
Protocol: The procedures of Yoshida et al ((1989) Anal. Biochem. 177:327-332) were adapted for these assays. CM from transfected CHO cells (wild-type Sulfs, vector control or the double cysteine mutants) was prepared as described above. The standard reaction mixture contained 5 μmol of Tris-HCl, pH 7.5, 1 μmol of MgCl2, 10 μg of porcine intestinal heparin (Sigma, St. Louis, Mo.) and 20 μl of the 100-fold concentrated CM in a total volume of 100 μl. After incubation at 37° C. for 8 hr, the reaction was stopped by heating at 100° C. for 2 min. A mixture of 1 milliunit of Heparinase I (EC 4.2.2.7, Sigma), 0.25 milliunits of Heparinase II (Sigma) and 0.1 milliunits of Heparinase III (EC 4.2.2.8, Sigma) in 1.5 μl of 50 mM Tris-HCl, pH 7.5, was added to the reaction mixture and incubated at 37° C. for 3 hr. The digestion was stopped by heating at 100° C. for 2 min, and the mixture was filtered by centrifugation in an Ultrafree-MC filter (Millipore).
The disaccharides of the digested heparin were then analyzed by HPLC on a Partisil-10 SAX column (Whatman, Fairfield, N.J.) run at 41° C. Disaccharides were eluted from the column by increasing the ionic strength as follows: time 0-5 min, 12 mM KH2PO4; time 5-40 minutes, gradient from 12 mM to 600 mM; time 40-45 min, 600 mM. Absorbance at 232 nm was monitored and components were identified by comparison with authentic unsaturated disaccharide markers from Sigma, i.e. ΔDiHS-0S, ΔDiHS-6S, ΔDiHS-NS, ΔDiHS-(N,6)diS, ΔDiHS-(N,2)diS and ΔDiHS-(N,6,2)triS. The endo-glucosanine-6-sulfatase activities of human Sulf-1 and Sulf-2 against heparin proceeded linearly up to 10 hr under these conditions. In other assays, 10 μg of chondroitin 6-sulfate was employed as a substrate in the standard assay. After incubation with CM, 15 milliunits of Chondroitinase ABC (EC 4.2.2.4, Sigma) was used to fragment the chondroitin sulfate. The standards used were as follows: ΔDi-0S, ΔDi-6S, ΔDi-4S, ΔDi-diSD(2,6) and ΔDi-diSE(4,6). All were from Oxford GlycoSystems Inc.
Intact heparin (10 μg) was treated with conditioned medium from Sulf transfected CHO cells. To analyze activity on specific sulfation modifications, we digested the treated heparin with a mixture of bacterial heparinases and analyzed the disaccharide products by HPLC using standards (Yoshida, supra). Both HSulf-1 CM and Hsulf-2 CM produced an ≈80% reduction in the amount of trisulfated units ([…]) corresponding to IdoA2S-GlcNS6S and a parallel increase in that of disulfated units (ΔDiHS-(N,2)diS) corresponding to IdoA2S-GlcNS (FIG. 16A-C). There were no effects on the disulfated units ΔDiHS-(N,6)diS, monosulfated or non-sulfated units. Specific activities were calculated based on the volume of CM (Table 3). The endosulfatase activities of Sulf-1 and Sulf-2 CM were increased 9-fold and 10-fold respectively relative to CM from mock transfected cells (Table 3). […] Further selectivity of the endosulfatase activity was indicated when we employed chondroitin 6-sulfate as a substrate. […] Thus the Sulfs are active against intact heparin.
Endo-glucosamine-6-sulfatase activity was measured against intact heparin as described in above using CM derived from CHO cells transfected with the indicated vectors. HSulf-1 ΔCC and HSulf-2 ΔCC denote the CC87, 88AA and CC88, 89AA mutants, respectively. Endosulfatase activity was defined by calculating the moles of unsaturated trisulfated disaccharides from which the sulfate group on C-6 position was liberated in the standard assay (FIGS. 16A-F) by the Sulfs as compared to levels in untreated control samples. Values shown are means±S.D. based on three independent reactions.

[1] = CM from transfected CHO cells, intact heparin 10 μg

effects on the disulfated units ΔDiHS-(N,6)diS, monosulfated or non-sulfated units [1]	reduction in the amount of trisulfated units ([…]) corresponding to IdoA2S-GlcNS6S [1]	removal of sulfate from the 6-position of glucosamine within the tri-sulfated units (intact heparin, neutral pH) [%]	Substance	Endo-glucosamine-6-sulfatase activity (CM from transfected CHO cells)	endosulfatase activity increase relative to CM from mock transfected cells (based on Table 3) [fold]
			HSulf-2 ΔCC: catalytically inactive HSulf-2, cysteines 88 and 89 mutated to alanines (CC88, 89AA)	5.6 ± 0.6 pmol/hr/ml of medium	
no effects	≈ 80%	80	HSulf-2: Human SULF2, an 870 amino acid sulfatase protein, SEQ ID NO:06; expressed with C-terminal Myc-His tag	96.6 ± 0.5 pmol/hr/ml of medium	10
